BindingDB's records for doi:10.1021/acsmedchemlett.0c00533 (Reaction Biology, 2021)

Biological target: Mitogen-activated protein kinase 14 (Homo sapiens, UniProt Q16539)
Assay: Inhibition of P38alpha (unknown origin)

Sequence of Mitogen-activated protein kinase 14 (Q16539 whole entry): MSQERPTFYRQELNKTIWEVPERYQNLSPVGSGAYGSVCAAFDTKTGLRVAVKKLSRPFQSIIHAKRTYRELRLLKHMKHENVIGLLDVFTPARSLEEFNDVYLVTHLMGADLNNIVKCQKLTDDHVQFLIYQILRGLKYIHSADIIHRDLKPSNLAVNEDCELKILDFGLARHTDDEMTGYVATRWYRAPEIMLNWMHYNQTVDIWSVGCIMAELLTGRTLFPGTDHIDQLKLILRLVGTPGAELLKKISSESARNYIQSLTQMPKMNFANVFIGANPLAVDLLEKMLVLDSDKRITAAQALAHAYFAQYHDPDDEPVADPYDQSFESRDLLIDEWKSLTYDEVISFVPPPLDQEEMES

- IC50: > 20 µM
SMILES: O=C(Nc1cnn(-c2csc(C(=O)NC3CNC3)c2)c1)Nc1ccccc1Cl
